According to patent publication US10370391B2, “Hydrogen peroxide-activable, anti-oxidant compounds and methods using same” (Beth Israel Deaconess Medical Center, Inc., priority 2014, dated 2019):

Legend:
[1] = Reaction of BRAP with H2O2 monitored by 1H NMR in D2O; type: physicochemical
Experimental: Since BRAP was designed to be rapidly oxidized by H2O2, generating HBA, boric acid and 2-(hydroxymethyl)-2-methylpropane-1,3-diol, the sensitivity of BRAP to H2O2 was investigated using ^1H NMR. BRAP was added to D2O containing H2O2 and the changes in the signal were monitored over time. In the presence of H2O2, BRAP was rapidly oxidized to generate HBA in a H2O2 concentration-dependent manner, confirmed by the appearance of new aromatic proton peaks at 6.8 and 7.2 ppm. In the presence of equimolar concentration of H2O2 (1 mM), a majority of boronic esters were cleaved within 30 minutes, with a half-life of hydrolysis of ˜5 minutes. Nearly all of boronic ester groups were cleaved by 5-fold excess of H2O2 (5 mM) within 5 minutes.

[2] = system: mouse macrophage (RAW264.7) cells; test: MTT cytotoxicity assay, RAW264.7; type: cell-based; details: concentrations as high as 5 mM, 24 hours of incubation
Experimental: FIG. 3, comprising FIGS. 3A-3B, is a set of bar graphs illustrating biocompatibility profiles of BRAP assessed by MTT assay in mouse macrophage (RAW264.7) cells (FIG. 3A) and ARVC (FIG. 3B). FIG. 19 is a bar graph showing the results of assessing cytotoxicity of BRAP-encapsulated PLGA microparticles against RAW264.7 cells in vitro. Cell viability was determined by the 3-(4,5-dimethylthiazil-2yl)-2,5-diphenyltetrazolium bromide (MTT) assay 24 hours after addition of BRAP-encapsulated PLGA microparticles to cells. “PB” represents BRAP-encapsulated PLGA microparticles. The percentages indicate the weight content of BRAP in the particles. Values shown represent mean±s.d. (n=4). […] 3-(4,5-Dimethylthiazil-2yl)-2,5-diphenyltetrazolium bromide (MTT) assay was performed to evaluate the cytotoxicity of BRAP. NIH 3T3 cells were cultured at a density of 1×10^5 cells/well in a 24 well plate, and RAW 264.7 cells and HEK cells were also cultured at a density of 2×10^5 cells/well in a 24 well plate. Cells were incubated for 24 hours to reach ˜80% confluency. Cells were treated with various amount of BRAP and incubated for 24 hours. […] After 10 min incubation, the absorbance at 570 nm was measured using a microplate reader (Biotek Instruments, Winooski, Vt.). The cell viability was determined by comparing the absorbance of BRAP treated cells that of control cells.

[3] = system: human embryonic kidney (HEK 293) cells; test: MTT cytotoxicity assay, HEK 293; type: cell-based; details: concentrations as high as 5 mM, 24 hours of incubation
Experimental: FIG. 8, comprising FIGS. 8A-8B, is a set of bar graphs illustrating biocompatibility profiles of BRAP assessed by MTT assay in human embryonic kidney (HEK 293) cells (FIG. 8A) and mouse embryonic fibroblast (NIH 3T3) cells (FIG. 8B).
3-(4,5-Dimethylthiazil-2yl)-2,5-diphenyltetrazolium bromide (MTT) assay was performed to evaluate the cytotoxicity of BRAP. NIH 3T3 cells were cultured at a density of 1×10^5 cells/well in a 24 well plate, and RAW 264.7 cells and HEK cells were also cultured at a density of 2×10^5 cells/well in a 24 well plate. Cells were incubated for 24 hours to reach ˜80% confluency. Cells were treated with various amount of BRAP and incubated for 24 hours. Each well was given 100 μL of MTT solution and was incubated for 4 h. 200 μL of dimethyl sulfoxide (DMSO) were added to each well to dissolve the resulting formazan crystals. After 10 min incubation, the absorbance at 570 nm was measured using a microplate reader (Biotek Instruments, Winooski, Vt.). The cell viability was determined by comparing the absorbance of BRAP treated cells that of control cells.

[4] = system: nitric oxide production in LPS-treated cells; test: Nitric oxide generation in LPS-treated cells (Griess reaction); type: cell-based; details: time and dose-dependent
Experimental: FIG. 4, comprising FIGS. 4A-4F, is a set of graphs, bar graphs and images illustrating anti-oxidant and anti-inflammatory effects of BRAP in vitro. […] The generation of ROS was monitored by flow cytometry as an indicator of DCF fluorescence. Fluorescence was analyzed in 10,000 cells with excitation at 480 nm and emission at 530 nm. FIG. 4C: Protective effect of BRAP on H2O2— stimulated adult rat cardiomyocytes. V=vehicle, *<0.05 vs. V+H2O2 (n=4). […] (n=4/group).
Nitric oxide is one of major sources of oxidative stress and a well-known pro-inflammatory mediator in the pathogenesis of inflammation (Lundberg, et al., 1997, Nature Medicine 3:30). The effects of BRAP on the generation of nitric oxide in LPS-treated cells were studied using a colorimetric assay based on the Griess reaction.

[5] = Cumulative toxicity, daily administration for 7 days in mice; type: in vivo, mouse; details: 1.5 mg/kg/day intraperitoneal
Experimental: FIG. 7, comprising FIGS. 7A-7C, is a set of images and bar graphs illustrating the safety profile of BRAP (1.5 mg/kg/day) after daily intraperitoneal administration for 7 days. FIGS. 7A-7B: Creatinine (FIG. 7A) and ALT (FIG. 7B) levels 7 days after daily BRAP administration. FIG. 7C: Representative H/E stained tissue sections of different organs 7 days after daily BRAP administration (n=4/group).
To determine the potential cumulative toxic effects of BRAP, BRAP (1.5 mg/kg/day) was administered daily for 7 days in mice.

[6] = system: renal ischemia/reperfusion (I/R) injury; test: Kidney I/R injury model in the mouse, oral BRAP; type: in vivo
Experimental: BRAP administered orally was tested in a kidney I/R injury model in the mouse. In this model, one of the mouse's kidney was subjected to ischemia for about 30 min, using a combination of unilateral clamping and contralateral nephrectomy. BRAP was administered orally to the mice at two time points: the night before the surgery, and immediately before the I/R surgery. The read-out markers after I/R comprised: creatinine levels 24 hours after reperfusion; tumor necrosis factor alpha (TNF-α) and monocyte chemo-attractant protein-1 (MCP-1) (both inflammatory markers); DHE staining (monitoring for ROS generation); and TUNEL staining (monitoring for apoptosis).

[7] = oral administration, 24 hours after reperfusion

- half-life at 1 mM ([1]; D2O containing H2O2, equimolar concentration of H2O2 (1 mM), read-out: half-life of hydrolysis): ~5 min
- stability of boronic ester ([1]; absence of H2O2, 3 days): remained intact
SMILES: CC1(CO)COB(c2ccc(CO)cc2)OC1 [BRAP, (4-(5-(hydroxymethyl)-5-methyl-1,3,2-dioxaborinan-2-yl)phenyl)methanol]
- time in which nearly all of boronic ester groups were cleaved ([1]; 5-fold excess of H2O2 (5 mM)): ≤ 5 min
- time in which a majority of boronic esters were cleaved ([1]; equimolar concentration of H2O2 (1 mM)): ≤ 30 min
- cytotoxicity (MTT) [2]: no significant cytotoxicity
- cytotoxicity (MTT) [3]: no significant cytotoxicity
- inhibition of nitric oxide production [4]: inhibitory effects
- histology of different organs (H/E) [5]: no significant histological evidence of accumulated toxicity
- serum test for hepatic function (ALT) [5]: no significant abnormalities
- serum test for renal function (creatinine) [5]: no significant abnormalities
- renal function (creatinine levels) ([6]; daily oral administration 8 mg/kg, after 4 days): significant improvement
- DHE staining (ROS generation) in kidney ([6]; oral administration): significantly reduced
- TUNEL staining (apoptosis) in kidney ([6]; oral administration): significantly reduced
- activation of MCP-1 in kidney [6, 7]: significantly attenuated
- activation of TNF-α in kidney [6, 7]: significantly attenuated
